Measured values: ChEMBL document CHEMBL1123025, “Acylmorphinans. A novel class of potent analgesic agents” (J Med Chem, 1985)

What was measured:
Opioid receptor = Opioid receptor (Rattus norvegicus, UniProt P33533+P34975+P33535); test: 50% Inhibition of stereospecific [3H]-naltrexone (10e-9 M) binding towards opiate receptor in rat brain homogenate; type: tissue-based
Mus musculus [1] = species: Mus musculus; test: animal or person; conditions: sc
Description: Analgesic activity in mice after subcutaneous administration in writhing assay; 0.26-0.83

Mus musculus [2] = test: Analgesic activity in mice after oral administration in writhing assay; 13.71-42.00; type: functional
Mus musculus [3] = test: Analgesic activity in mice after subcutaneous administration in writhing assay; 1.21-3.91; type: functional; conditions: sc
Mus musculus [4] = test: Analgesic activity in mice after subcutaneous administration in tail-flicking assay; activity value ranges from 3.0 - 5.4; type: functional; conditions: sc
Mus musculus [5] = test: Analgesic activity in mice after oral administration in tail-flicking assay; 7.22-10.25; type: functional
Mus musculus [6] = test: Analgesic activity in mice after oral administration in writhing assay; 0.70-2.80; type: functional
Mus musculus [7] = test: Analgesic activity in mice after subcutaneous administration in writhing assay; 0.06-0.22; type: functional; conditions: sc

Compound `CC(=O)c1ccc2c(c1)C[C@@H]1[C@@H]3CCCC[C@]23CCN1C` has an IC50 (Opioid receptor) of 13000 nM.
Compound `CC(=O)c1ccc2c(c1)[C@@]13CCCC[C@H]1[C@@H](C2)N(CC1CC1)CC3.Cl` has an IC50 (Opioid receptor) of 70 nM.
With `CN1CC[C@]23c4c5ccc(O)c4O[C@H]2[C@@H](O)C=C[C@H]3[C@H]1C5` [MORPHINE] the ED50 (Mus musculus [1]) was 0.46 mg/kg.
`COc1ccc2c3c1O[C@H]1[C@@H](O)C=C[C@H]4[C@@H](C2)N(C)CC[C@@]341.COc1ccc2c3c1O[C@H]1[C@@H](O)C=C[C@H]4[C@@H](C2)N(C)CC[C@@]341.O.O=P(O)(O)O.O=P(O)(O)O` [CODEINE PHOSPHATE] showed an ED50 (Mus musculus [2]) of 24 mg/kg and an ED50 (Mus musculus [3]) of 2.3 mg/kg.
`CC(=O)c1ccc2c(c1)[C@@]13CCCC[C@H]1[C@@H](C2)N(C)CC3` gave an ED50 (Mus musculus [4]) of 4 mg/kg and an IC50 (Opioid receptor) of 210 nM.
`CC(O)c1ccc2c(c1)[C@@]13CCCC[C@H]1[C@@H](C2)N(C)CC3.Cl` (some centres not stated) showed an IC50 (Opioid receptor) of 14 nM.
For `CN1CC[C@]23CCCC[C@H]2[C@H]1Cc1ccc(O)cc13` [LEVORPHANOL], the ED50 (Mus musculus [5]) was 8.5 mg/kg, the ED50 (Mus musculus [6]) was 1.4 mg/kg and the ED50 (Mus musculus [7]) was 0.11 mg/kg. The IC50 (Opioid receptor) was 0.004 nM.
